This note sets out measurements from ChEMBL document CHEMBL6109094, “Anti-inflammatory agents design via the fragment hybrid strategy in the discovery of compound c1 for treating ALI and UC” (Eur J Med Chem, 2025).

Activity calls are given as the source filed them. The rule behind the calls is not given here.

The first test relates to RAW264.7. In words: Anti-inflammatory activity in mouse RAW264.7 cells assessed as inhibition of LPS-induced IL-6 level at 10 uM preincubated for 30 mins followed by LPS addition measured after 24 hrs by ELISA relative to control. The format is functional. Conditions: time 24.5 hrs. For orientation: ELISA stands for enzyme-linked immunosorbent assay.
On to `COc1cc2c(O[C@H]3CC[C@@H](N)CC3)ncnc2cc1OCc1ccccc1Br`, for which the inhibition – broadly, the percentage by which the read-out fell short of the control – at 10 µM was 33.2%. As to `COc1cc2ncnc(O[C@H]3CC[C@@H](NC(=O)CCN4CCNCC4)CC3)c2cc1O`, the inhibition at 10 µM was 9.85%. For `COc1cc2ncnc(O[C@H]3CC[C@@H](NCC4CCCN(C(=O)OC(C)(C)C)C4)CC3)c2cc1O` (some centres not stated), the inhibition at 10 µM was 68.7%.

In the case of `COc1cc2ncnc(O[C@H]3CC[C@@H](NCCN4CCN(C(C)=O)CC4)CC3)c2cc1O`, the inhibition at 10 µM stood at 66.1%. For `COc1cc2c(O[C@H]3CC[C@@H](N)CC3)ncnc2cc1OCc1ccccc1[N+](=O)[O-]`, the inhibition at 10 µM was 30.6%. Regarding `COc1cc2c(O[C@H]3CC[C@@H](N)CC3)ncnc2cc1OCc1ccc(C)cc1`, the inhibition at 10 µM came to 87.2%. As for `COc1cc2c(O[C@H]3CC[C@@H](N)CC3)ncnc2cc1OCc1ccc([N+](=O)[O-])cc1`, the inhibition at 10 µM is 86.6%. As for `COc1cc2c(O[C@H]3CC[C@@H](N)CC3)ncnc2cc1OCc1cccc(C)c1`, the inhibition at 10 µM was 89.5%. With `COc1cc2ncnc(O[C@H]3CC[C@@H](NC(=O)CCN4CCN(C(=O)OC(C)(C)C)CC4)CC3)c2cc1O`, the inhibition at 10 µM is 17.5%. As for `COc1cc2c(O[C@H]3CC[C@@H](NCCN4CCN(C(=O)OC(C)(C)C)CC4)CC3)ncnc2cc1O`, the inhibition at 10 µM worked out at 53.6%. Same read-out and setting: to `COc1cc2ncnc(O[C@H]3CC[C@@H](NC(=O)CN4CCNCC4)CC3)c2cc1O` belongs 37.1%. For `COc1cc2ncnc(O[C@H]3CC[C@@H](NCC4CCCNC4)CC3)c2cc1O` (some centres not stated), the inhibition entry is “inactive”. With `COc1cc2c(O[C@H]3CC[C@@H](NCCN4CCNCC4)CC3)ncnc2cc1OCc1ccccc1`, the inhibition at 10 µM amounted to 74.2%. On to `COc1cc2ncnc(O[C@H]3CC[C@@H](NCCN4CCN(C(=O)OC(C)(C)C)CC4)CC3)c2cc1O`, for which the inhibition at 10 µM is 59.4%. As to `COc1cc2ncnc(O[C@H]3CC[C@@H](NCCN4CCNCC4)CC3)c2cc1OC`, the inhibition entry was “inactive”. With `COc1cc2c(O[C@H]3CC[C@@H](N)CC3)ncnc2cc1OCc1cccc([N+](=O)[O-])c1`, the inhibition at 10 µM was 75.2%. Regarding `COc1cc2ncnc(O[C@H]3CC[C@@H](NCCN4CCNCC4)CC3)c2cc1O`, the inhibition at 10 µM stood at 46.5%.

On to `COc1cc2c(O[C@H]3CC[C@@H](NCCN4CCNCC4)CC3)ncnc2cc1O`, for which the inhibition at 10 µM stood at 58.4%. Regarding `Clc1ccc2c(O[C@H]3CC[C@@H](NCCN4CCNCC4)CC3)ncnc2c1`, the inhibition at 10 µM amounted to 58.9%. `COc1cc2ncnc(O[C@H]3CC[C@@H](NC(=O)CN4CCN(C(=O)OC(C)(C)C)CC4)CC3)c2cc1O`: the inhibition at 10 µM stood at 11.8%. Take `COc1cc2c(O[C@H]3CC[C@@H](N)CC3)ncnc2cc1OCc1ccc(Br)cc1`: the inhibition result is “inactive”. For the compound `COc1cc2c(O[C@H]3CC[C@@H](NCCN4CCN(C(=O)OC(C)(C)C)CC4)CC3)ncnc2cc1OCc1ccccc1`, the inhibition result is “inactive”. Take `COc1cc2ncnc(O[C@H]3CC[C@@H](NCCN4CCN(C(=O)OC(C)(C)C)CC4)CC3)c2cc1OCc1ccccc1`: the inhibition at 10 µM is 58.1%. In the case of `COc1cc2ncnc(O[C@H]3CC[C@@H](NCCN4CCNCC4)CC3)c2cc1OCc1ccccc1`, the inhibition at 10 µM turned out to be 62.7%. Regarding `COc1cc2ncnc(O[C@H]3CC[C@@H](NCCCN4CCN(C)CC4)CC3)c2cc1O`, the inhibition at 10 µM amounted to 4.51%. On the same count and under the same terms, to `COc1cc2ncnc(O[C@H]3CC[C@@H](NCCN4CCN(C(=O)OC(C)(C)C)CC4)CC3)c2cc1OC` belongs 10.8%; to `CC(C)(C)OC(=O)N1CCN(CCN[C@H]2CC[C@@H](Oc3ncnc4cc(Cl)ccc34)CC2)CC1`, 68.7%.

For a further test, the system named is RAW264.7. Nature of the test: cells. As to conditions: Mus musculus.
Description: Anti-inflammatory activity in mouse RAW264.7 cells assessed as inhibition of LPS-induced IL-6 level preincubated for 30 mins followed by LPS addition measured after 24 hrs by ELISA
Consider `COc1cc2c(O[C@H]3CC[C@@H](N)CC3)ncnc2cc1OCc1ccc(C)cc1`, for which inhibition was half-maximal at 1590 nM (IC50). Regarding `COc1cc2c(O[C@H]3CC[C@@H](N)CC3)ncnc2cc1OCc1ccc([N+](=O)[O-])cc1`, the midpoint of inhibition, the IC50, lay at 650 nM. Consider `COc1cc2c(O[C@H]3CC[C@@H](N)CC3)ncnc2cc1OCc1cccc(C)c1`, for which the IC50 (usually the concentration that gives 50% inhibition) was found to be 600 nM. As to `COc1cc2c(O[C@H]3CC[C@@H](NCCN4CCNCC4)CC3)ncnc2cc1OCc1ccccc1`, the IC50 worked out at 3550 nM.

Another test deals with T1, Tyrosine-protein kinase JAK3 (Homo sapiens, UniProt P52333).
T1 sequence (P52333 whole entry): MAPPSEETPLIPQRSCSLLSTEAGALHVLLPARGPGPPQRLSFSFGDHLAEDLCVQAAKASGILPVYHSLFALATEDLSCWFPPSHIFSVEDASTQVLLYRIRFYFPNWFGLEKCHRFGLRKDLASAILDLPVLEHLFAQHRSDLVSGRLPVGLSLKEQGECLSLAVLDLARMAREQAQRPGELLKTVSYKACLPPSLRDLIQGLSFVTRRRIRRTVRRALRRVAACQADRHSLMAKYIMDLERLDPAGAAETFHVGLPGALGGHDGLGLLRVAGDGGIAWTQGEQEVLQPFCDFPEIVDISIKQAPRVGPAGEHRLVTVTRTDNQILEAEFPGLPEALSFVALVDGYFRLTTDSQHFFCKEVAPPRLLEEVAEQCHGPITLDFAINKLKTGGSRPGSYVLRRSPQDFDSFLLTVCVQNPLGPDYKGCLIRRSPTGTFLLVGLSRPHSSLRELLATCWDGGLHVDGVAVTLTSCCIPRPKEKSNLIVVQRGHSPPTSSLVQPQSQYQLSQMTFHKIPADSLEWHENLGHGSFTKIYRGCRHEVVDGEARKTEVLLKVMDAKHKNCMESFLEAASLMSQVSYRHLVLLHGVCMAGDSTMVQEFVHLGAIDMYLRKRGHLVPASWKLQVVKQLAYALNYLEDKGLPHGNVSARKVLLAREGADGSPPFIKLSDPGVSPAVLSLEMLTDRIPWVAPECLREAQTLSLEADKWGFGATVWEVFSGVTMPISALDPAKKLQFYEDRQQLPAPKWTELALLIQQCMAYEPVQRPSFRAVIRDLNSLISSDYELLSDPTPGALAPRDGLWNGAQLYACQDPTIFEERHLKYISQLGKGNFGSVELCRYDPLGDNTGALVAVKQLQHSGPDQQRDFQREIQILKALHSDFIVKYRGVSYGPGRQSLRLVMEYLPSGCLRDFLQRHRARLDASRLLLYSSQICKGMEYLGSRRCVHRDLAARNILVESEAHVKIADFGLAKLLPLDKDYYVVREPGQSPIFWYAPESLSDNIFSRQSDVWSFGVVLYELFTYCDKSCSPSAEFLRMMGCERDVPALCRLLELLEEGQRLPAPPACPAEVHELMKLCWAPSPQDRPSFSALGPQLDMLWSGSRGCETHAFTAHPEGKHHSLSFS
In words: Inhibition of JAK3 (unknown origin).
Conditions: not given
In turn, `COc1cc2ncnc(Nc3cc(Br)c(O)c(Br)c3)c2cc1OC` returned an IC50 of 2500 nM.
